Test results from patent US20120107916A1, “METHODS AND COMPOSITIONS FOR AFFECTING THE DIFFERENTIATION OF CLOSTRIDIA IN CULTURE” (priority 2009, published 2012).

Columns and labels:
[1] = test system: C. beijerinckii NCIMB 8052; experiment: Ceric ion reactive compounds (total alcohols) in culture broths, colorimetric ceric ammonium nitrate assay; type: cell-based, Clostridium beijerinckii; conditions: 50 nM peptide; for Optical density of ceric ion reactive compounds measured at 500 nm: transfer 3, 96 h, 30° C.
Experimental: (§1) Bacterial strains and media. Clostridium acetobutylicum ATCC 824 and C. beijerinckii NCIMB 8052 are available from several commercial microbial culture collections including the American Type Culture Collection (ATCC), Manassas, Va., USA. The strains were grown at 30° C. or 37° C. in YE broth, which contained, per liter: 5.0 g yeast extract, 2.5 g casamino acids, 1.0 g L-asparagine, 0.5 g cysteine.HCl, 56 mg K2HPO4, 56 mg KH2PO4, 82 mg anhydrous MgSO4, 8 mg FeSO4.H2O, 6 mg MnSO4.H2O and 10 g glucose. Alternatively, strains were grown in YEPG broth, which was identical to YE expect that K2HPO4 and KH2PO4 were increased to 145 mg/L each and glucose was increased to 60 g/L. The pH of the media was adjusted to 7.2 using 45% KOH prior to sterilization by autoclaving. Media were solidified by addition of 1.5% Bacteriological Agar, Actimedia Manufacturers, Inc., Lansing, Mich. All cultures were grown in anaerobic conditions using the AnaeroPack System, Mitsubishi Gas Chemical Co., Inc., Japan, and GasPak EZ Gas Generating Sachets, Becton, Dickinson and Co., Sparks, Md. Spore stocks were kept at room temperature on agar-solidified media and were activated by suspending spores in 0.5 mL to 1.0 mL of medium followed by heating for 10 min at 80° C. before inoculation into growth medium.
Analysis of solvents. Total alcohols in cell-free culture supernatants were measured using a modification of a colorimetric method based on ceric ammonium nitrate (Reid and Truelove, 1952). […] The sample was mixed by inverting the cuvette six times then exactly two minutes later the optical density at 500 nm wavelength was measured. The concentration of total alcohols was determined by comparison with a standard curve prepared by using butanol diluted in distilled water.
Effect of peptide SEQ ID NO:145 addition on sequential batch cultures of C. beijerinckii NCIMB 8052 grown at 30° C. […] Each culture was stopped after 96 hours of incubation and optical density, pH and ceric ion reactive chemicals were measured. […]

[2] = test system: C. beijerinckii NCIMB 8052; experiment: Growth (optical density at 600 nm) of sequential batch cultures; type: cell-based, Clostridium beijerinckii
Experimental: as §1
Growth and pH measurements. Growth of bacterial cultures was measured spectrophotometrically using optical density at 600 nm and pH of cell-free culture supernatants was measured using a hand-held Shindengen ISFET pH Meter KS501, Shendengen Electric Manufacturing Co., Ltd., Bannockburn, Ill.
Effect of peptide SEQ ID NO:145 addition on sequential batch cultures of C. beijerinckii NCIMB 8052 grown at 30° C. Spores of C. beijerinckii NCIMB 8052 were germinated and grown overnight at 30° C. under anaerobic conditions in YEPG medium. After about 24 h of growth, […] of the culture was transferred (transfer 1) to each of four flasks that contained 10 mL of YEPG and either had no treatment or were treated with peptide SEQ ID NO:145 (see Table 8) at 1 nM, 10 nM or 50 nM. Thereafter, 75 μL of each culture was transferred, at the same time, every 24-48 h to 10 mL of fresh YEPG that contained the same peptide treatment or no treatment. Each culture was stopped after 96 hours of incubation and optical density, pH and ceric ion reactive chemicals were measured. Sequential batch culturing was continued through 6 transfers at which point all cultures appeared to be growing to the same extent (Table 12 and FIG. 4).
Effect of peptide SEQ ID NO:145 addition on sequential batch cultures of C. beijerinckii NCIMB 8052 grown at 37° C. Spores of C. beijerinckii NCIMB 8052 were germinated and grown overnight at 37° C. under anaerobic conditions in YEPG medium that either contained 50 nM of peptide SEQ ID NO:145 or no added peptide. After about 24 h of growth, 10 μL of the untreated culture was transferred (transfer 1) to each of two flasks that contained 10 mL of YEPG with either no treatment or with 50 nM peptide SEQ ID NO:145. At the same time, 10 μL of the culture that was germinated in the presence of peptide SEQ ID NO:145 was also transferred to 10 mL of YEPG that contained 50 nM of peptide SEQ ID NO:145. Thereafter, 10 μL of each culture was transferred, at the same time, every 24-48 h to 10 mL of fresh YEPG that contained the same peptide treatment or no treatment. Each culture was stopped after 72 hours of incubation and optical density, pH and ceric ion reactive chemicals were measured. Addition of peptide SEQ ID NO:145 appeared to have no effect on endpoint measurements of the growth of C. beijerinckii NCIMB 8052 after germination or during sequential transfers of cultures at 37° C. (Table 18 and FIG. 10). All three cultures stopped growing at the second transfer.

In the case of “IRLIT (Derived from Clostridium beijerinckii SEQ ID NO: 141) [Peptide SEQ ID NO:145, pentapeptide from C. beijerinckii NCIMB 8052 locus Cbei_1065; chemically synthesized putative autoinducing peptide]”, the “Effect on endpoint measurements of ceric ion reactive compounds” value ([1]; 37° C.) is reported as “no apparent effect”, the “Optical density of ceric ion reactive compounds measured at 500 nm” value ([1]; listed as SEQ ID NO: 145) is reported as −0.002 and the “Optical density of ceric ion reactive compounds measured at 500 nm” value ([1]; listed as SEQ ID NO:145) is reported as “no ceric ion reactive compounds”. The “Optical density at 600 nm of culture broths” value (“Optical density at 600 nm” below) ([2]; 1 nM peptide, transfer 1, 96 h, 30° C.) was 2.086, the “Optical density at 600 nm” value ([2]; 1 nM peptide, transfer 2, 96 h, 30° C.) was 2.086 and the “Optical density at 600 nm” value ([2]; 1 nM peptide, transfer 3, 96 h, 30° C.) was 2.106. The “Optical density at 600 nm” value ([2]; 1 nM peptide, transfer 4, 96 h, 30° C.) was 2.115, the “Optical density at 600 nm” value ([2]; 1 nM peptide, transfer 5, 96 h, 30° C.) was 2.090 and the “Optical density at 600 nm” value ([2]; 1 nM peptide, transfer 6, 96 h, 30° C.) was 2.075. For the same substance, the “Optical density at 600 nm” value ([2]; 10 nM peptide, transfer 1, 96 h, 30° C.) was 2.080, the “Optical density at 600 nm” value ([2]; 10 nM peptide, transfer 2, 96 h, 30° C.) was 2.093 and the “Optical density at 600 nm” value ([2]; 10 nM peptide, transfer 3, 96 h, 30° C.) was 2.078. The “Optical density at 600 nm” value ([2]; 10 nM peptide, transfer 4, 96 h, 30° C.) was 2.108, the “Optical density at 600 nm” value ([2]; 10 nM peptide, transfer 5, 96 h, 30° C.) was 2.069 and the “Optical density at 600 nm” value ([2]; 10 nM peptide, transfer 6, 96 h, 30° C.) was 2.062. The “Optical density at 600 nm” value ([2]; 50 nM peptide added after germination, transfer 1, 72 h, 37° C.) was 1.313, the “Optical density at 600 nm” value ([2]; 50 nM peptide added after germination, transfer 2, 72 h, 37° C.) was 0.011 and the “Effect on endpoint measurements of growth after germination or during sequential transfers” value ([2]; 50 nM peptide, 37° C.) was “no effect”. For the same substance, the “Effect on germination and growth (visual observations through the course of growth)” value ([2]; 50 nM peptide, 37° C.) was “repressive effect”, the “Optical density at 600 nm” value ([2]; 50 nM peptide, transfer 1, 96 h, 30° C.) was 2.102 and the “Optical density at 600 nm” value ([2]; 50 nM peptide, transfer 2, 96 h, 30° C.) was 2.023. For the same substance, the “Optical density at 600 nm” value ([2]; 50 nM peptide, transfer 3, 96 h, 30° C.) was 1.936, the “Optical density at 600 nm” value ([2]; 50 nM peptide, transfer 4, 96 h, 30° C.) was 2.061 and the “Optical density at 600 nm” value ([2]; 50 nM peptide, transfer 5, 96 h, 30° C.) was 2.120. The “Optical density at 600 nm” value ([2]; 50 nM peptide, transfer 6, 96 h, 30° C.) was 2.046, the “Growth of treated cultures during incubation (data not shown)” value ([2]; 1-50 nM peptide, 96 h, 30° C.) was “slow the growth of the treated cultures during 96 h of incubation in a dose dependent manner” and the “Optical density at 600 nm” value ([2]; 50-50: germinated and transferred in 50 nM peptide, transfer 1, 72 h, 37° C.) was 1.420. For the same substance, the “Optical density at 600 nm” value ([2]; 50-50: germinated and transferred in 50 nM peptide, transfer 2, 72 h, 37° C.) was 0.011, the “Optical density at 600 nm” value ([2]; 50-50: spores germinated in 50 nM peptide, transfer 0 (germinated culture), 72 h, 37° C.) was 1.158 and the “Number of times that cultures could be transferred in comparison with an untreated culture” value ([2]; through six culture transfers, 30° C.) was “did not affect”.
